Measurements taken from US6355784B1, “Methods and compositions for the manufacture of halogenated anthracyclines with increased antitumor activity, other anthracyclines, halogenated sugars, and glycosyl donors” (priority 1998, dated 2002).
In brackets after ≈: the same amount, converted by molar mass.

How the values were obtained:
MCF-7/DOX (MDR) cells = assay: MTT cytotoxicity assay, MDR MCF-7/DOX cells; conditions: for ID50 MCF-7/DOX (MDR): MDR-overexpressing MCF-7/DOX cells, MTT, 72 hours; for RI (resistance index) MCF-7/DOX vs MCF-7: ratio of ID50 in MCF-7 and MCF-7/DOX cells
MCF-7/VP-16 (MRP) cells = conditions: for ID50 MCF-7/VP-16 (MRP): MRP-overexpressing MCF-7/VP-16 cells, MTT, 72 hours; for RI (resistance index) MCF-7/VP-16 vs MCF-7: ratio of ID50 in MCF-7 and MCF-7/VP-16 cells
MCF-7 cells = assay: MTT cytotoxicity assay, wild-type MCF-7 cells; conditions: for ID50 MCF-7: sensitive human breast carcinoma MCF-7 cells, MTT, 72 hours; for cytotoxicity in sensitive MCF-7 cells, in words: compared with DOX
KB cells = assay: MTT cytotoxicity assay, sensitive KB cells; conditions: sensitive human carcinoma KB cells, 72 hours
KBVI (MDR) cells = assay: MTT cytotoxicity assay, multi-drug-resistant KBV1 cells; conditions: for ID50 KBVI (MDR): multi-drug-resistant KBV1 cells overexpressing MDR1 (P-gp), MTT, 72 hours; for RI (resistance index) KBVI vs KB: ratio of ID50 in KB and KBVI cells
prion disease = conditions: cited from earlier work
amyloid enhancing factor = conditions: preincubation of the amyloid enhancing factor with IDOX; cited from earlier work
amyloid fibrils = conditions: cited from earlier work
amyloidosis = conditions: as a result of amyloid resorption; cited from earlier work

Compound | ID50 MCF-7/DOX (MDR) (MCF-7/DOX (MDR) cells) | ID50 MCF-7/VP-16 (MRP) (MCF-7/VP-16 (MRP) cells) | RI (resistance index) MCF-7/VP-16 vs MCF-7 (MCF-7/VP-16 (MRP) cells) | ID50 MCF-7 (MCF-7 cells) | ID50 KB (KB cells) | ID50 KBVI (MDR) (KBVI (MDR) cells) | also measured
6′-fluoro-doxorubicin [WP 743] | >10 µg/mL | 2.3 µg/mL | 11.5 | 0.2 µg/mL | 0.64 µg/mL | 41 µg/mL | RI (resistance index) MCF-7/DOX vs MCF-7 (MCF-7/DOX (MDR) cells): 50; RI (resistance index) KBVI vs KB (KBVI (MDR) cells): 64
COc1cccc2c1C(=O)c1c(O)c3c(c(O)c1C2=O)C[C@@](O)(C(=O)CO)C[C@@H]3O[C@H]1C[C@H](N)[C@H](O)[C@H](C)O1 [DOX, doxorubicin, reference compound] | >100 µg/mL | 6.2 µg/mL (≈ 11.4 µM) | 16.3 | 0.38 µg/mL (≈ 0.699 µM) | 4.1 ± 0.3 µg/mL (≈ 7.54 µM) | >100 µg/mL | RI fold higher than that of WP 715 and WP 722 (MCF-7/DOX (MDR) cells; MCF-7/DOX cells): 180 fold; RI (resistance index) MCF-7/DOX vs MCF-7 (MCF-7/DOX (MDR) cells): >263; cytotoxicity against MDR KB-V1 cells, in words (KBVI (MDR) cells): inactive
COc1cccc2c1C(=O)c1c(O)c3c(c(O)c1C2=O)CC(O)(C(=O)CO)CC3OC1CC(N)C(I)C(C)O1 (centres unmarked) [IDOX, 4′-iodo-4′-deoxydoxorubicin] | – | – | – | – | – | – | onset of disease (prion disease; Syrian-hamster prion model): delayed onset of the disease; survival time (prion disease; Syrian-hamster prion model): prolonged; accumulation of amyloid fibrils in brain (prion disease; neuropathological examination, versus untreated controls): delay in the accumulation of amyloid fibrils; formation of amyloid deposits (amyloid enhancing factor): significantly reduces formation of amyloid deposits; binding to amyloid fibrils (amyloid fibrils): binds strongly; clinical outcome in patients with amyloidosis (amyloidosis): substantial clinical improvement
COc1cccc2c1C(=O)c1c(O)c3c(c(O)c1C2=O)CC(O)(C(=O)CO)CC3OC1CC(O)C(F)C(C)O1 (centres unmarked) [WP 563, 3′-Deamino-4′-fluoro-3′-hydroxydoxorubicin] | – | – | – | – | – | 2.74 ± 2.9 µg/mL (≈ 5.01 µM) | –
COc1cccc2c1C(=O)c1c(O)c3c(c(O)c1C2=O)CC(O)(C(=O)CO)CC3OC1CC(O)C(F)(F)C(C)O1 (centres unmarked) [WP 600, 3′-deamino-4′-deoxy-4′,4′-difluoro-3′-hydroxy-doxorubicin] | – | – | – | – | – | 16.9 ± 2.3 µg/mL (≈ 29.9 µM) | –
COc1cccc2c1C(=O)c1c(O)c3c(c(O)c1C2=O)CC(O)(C(C)=O)CC3OC1CC(N)C(F)C(C)O1.Cl (centres unmarked) [WP 715, 4′-deoxy-4′-fluoro-daunorubicin hydrochloride] | 2.2 µg/mL | – | – | 1.5 ± 1.4 µg/mL | 3.15 ± 0.9 µg/mL | 4.1 ± 0.6 µg/mL | cytotoxicity against resistant MCF-7/DOX cells, in words (MCF-7/DOX (MDR) cells): highly cytotoxic against resistant cells; cytotoxicity in sensitive MCF-7 cells, in words (MCF-7 cells): less potent than DOX
COc1cccc2c1C(=O)c1c(O)c3c(c(O)c1C2=O)CC(O)(C(=O)CO)CC3OC1CC(N)C(F)C(C)O1 (centres unmarked) [WP 722, 4′-deoxy-4′-fluoro-doxorubicin] | 1.9 µg/mL (≈ 3.48 µM) | 4.2 ± 5.0 µg/mL (≈ 7.7 µM) | 3.23 | 1.3 ± 1.6 µg/mL (≈ 2.38 µM) | 2.1 ± 2.5 µg/mL (≈ 3.85 µM) | 3.3 ± 0.4 µg/mL (≈ 6.05 µM) | cytotoxicity against resistant MCF-7/DOX cells, in words (MCF-7/DOX (MDR) cells): highly cytotoxic against resistant cells; cytotoxicity in MCF-7/VP-16 cells, in words (MCF-7/VP-16 (MRP) cells; compared with DOX): significant increase in cytotoxicity; cytotoxicity in sensitive MCF-7 cells, in words (MCF-7 cells): less potent than DOX; RI (resistance index) KBVI vs KB (KBVI (MDR) cells): 1.57
